Where two headings read alike, the source gives them in different places.
What was measured:
[1] = target: human CB1 receptor (hCB1) (Homo sapiens, UniProt P21554); assay: cAMP assay, agonist/inverse agonist activity at human CB1 receptor; assay type: cell-based; conditions: hCB1R, read-out: EC50 at hCB1R (Potency at Human CB1 determined by cAMP Assay)
Experimental: The ability of each of the compounds to act as agonists or inverse agonists at human CB2 and CB 1 receptors (hCB2, hCB 1, respectively) and at the rat CB2 receptor (rCB2) was determined by measuring changes in intracellular cyclic AMP (cAMP) levels as described in U.S. Pat. No. 7,517,874.
TR-FRET was measured using a 330-380 nm excitation filter, 615 nm and 665 nm emission filters, dichroic mirror 380 nm and Z=10 mm. cAMP concentrations in each well were back-calculated from a cAMP standard curve run concurrently during each assay. Each plate contained 16 wells of forskolin stimulated cells and 16 wells of forskolin plus 1 μM CP55,940-treated cells. Concentrations of cAMP were expressed as a percent of the difference of these two groups of wells. Concentration-response data including EC50 (the concentration of compound producing 50% of the maximal response) and intrinsic activity (the percent maximal activation compared to full activation by CP55,940) were determined using a four-parameter non-linear regression algorithm (CambridgeSoft Bioassay).

[2] = target: human CB2 receptor (hCB2) (Homo sapiens, UniProt P34972); assay: cAMP assay, agonist/inverse agonist activity at human CB2 receptor; assay type: cell-based
Experimental: TR-FRET was measured using a 330-380 nm excitation filter, 615 nm and 665 nm emission filters, dichroic mirror 380 nm and Z=10 mm. cAMP concentrations in each well were back-calculated from a cAMP standard curve run concurrently during each assay. Each plate contained 16 wells of forskolin stimulated cells and 16 wells of forskolin plus 1 μM CP55,940-treated cells. Concentrations of cAMP were expressed as a percent of the difference of these two groups of wells.

rat L5/L6 SNL model = assay: Spinal nerve ligation (SNL) model of neuropathic pain, mechanical allodynia; assay type: in vivo; conditions: two-way repeated measurement ANOVA, FIG. 1
Experimental: The SNL model (Kim and Chung, 1992, Pain 50(3):355-63) was used to induce chronic neuropathic pain in rats. Rats were anesthetized with isoflurane, the left L5 transverse process was removed, and the L5 and L6 spinal nerves were tightly ligated with 6-0 silk suture. The wound was then closed with internal sutures and external staples. Following at least seven days post SNL, baseline, post-injury and post-treatment values for non-noxious mechanical sensitivity were evaluated using eight Semmes-Weinstein filaments (Stoelting, Wood Dale, Ill., USA) with varying stiffness (0.4, 0.7, 1.2, 2.0, 3.6, 5.5, 8.5, and 15 g) according to the up-down method (Chaplan et al., 1994, J. Neurosci. Meth., 53(1):55-63). Animals were placed on a perforated metallic platform and allowed to acclimate to their surroundings for a minimum of 30 mins before testing.
Rat L5/L6 SNL model (n=6/group; mean±sem). Sensitivity to non-noxious mechanical stimuli was tested before and at various time points following oral administration of compound (36). The mean and standard error of the mean (SEM) were determined for the injured paw in each treatment group. Since this stimulus is normally not considered painful, significant injury-induced increases in responsiveness in this test are interpreted as a measure of mechanical allodynia.

[3] = hCB2R, cAMP assay, read-out: EC50 at hCB2R (Potency at Human CB2 determined by cAMP Assay)

human CB2 receptor (hCB2), sequence (P34972 whole entry): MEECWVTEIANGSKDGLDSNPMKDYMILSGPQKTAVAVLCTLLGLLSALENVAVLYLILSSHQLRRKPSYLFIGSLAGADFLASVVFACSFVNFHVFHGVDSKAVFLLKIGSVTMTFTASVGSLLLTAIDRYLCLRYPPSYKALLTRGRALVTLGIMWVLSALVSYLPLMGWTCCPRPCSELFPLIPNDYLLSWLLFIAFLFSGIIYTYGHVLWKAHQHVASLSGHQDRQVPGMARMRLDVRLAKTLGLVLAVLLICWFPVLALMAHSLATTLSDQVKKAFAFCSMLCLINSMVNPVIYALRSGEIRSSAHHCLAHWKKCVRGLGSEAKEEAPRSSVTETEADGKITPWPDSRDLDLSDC
human CB1 receptor (hCB1), sequence (P21554 whole entry): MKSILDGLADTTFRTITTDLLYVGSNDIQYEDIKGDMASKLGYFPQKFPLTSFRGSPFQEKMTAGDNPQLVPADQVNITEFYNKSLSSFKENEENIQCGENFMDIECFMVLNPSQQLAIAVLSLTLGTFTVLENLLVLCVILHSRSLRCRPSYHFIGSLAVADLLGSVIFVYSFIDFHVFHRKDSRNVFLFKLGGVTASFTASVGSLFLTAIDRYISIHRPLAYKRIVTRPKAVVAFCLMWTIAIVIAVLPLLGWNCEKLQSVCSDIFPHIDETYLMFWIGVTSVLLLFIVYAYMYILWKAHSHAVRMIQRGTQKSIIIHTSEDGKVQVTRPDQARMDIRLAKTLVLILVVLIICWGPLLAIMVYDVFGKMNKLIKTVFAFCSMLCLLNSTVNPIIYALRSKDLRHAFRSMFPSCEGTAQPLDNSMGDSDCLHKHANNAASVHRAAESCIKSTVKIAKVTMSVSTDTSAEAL

Structure (SMILES) | EC50 [1] | EC50 [2] | other results
CC(C)(C)[C@H](NC(=O)n1nc(-c2ccc(F)c(F)c2)c2c1CCOC2)C(=O)N1CCS(=O)(=O)CC1 [Compound 110, (S)-3-(3,4-difluorophenyl)-N-(3,3-dimethyl-1-oxo-1-thiomorpholinodioxide-butan-2-yl)-6,7-dihydropyrano[4,3-c]pyrazole-1(4H)-carboxamide] | < 1000 nM |  | EC50 [2, 3]: > 1000 nM
CC(C)(C)[C@H](NC(=O)c1nn(-c2ccc(Cl)cc2F)c2c1COCC2)C(=O)NCCO [Compound 117, (S)-1-(4-chloro-2-fluorophenyl)-N-(1-(2-hydroxyethylamino)-3,3-dimethyl-1-oxobutan-2-yl)-1,4,6,7-tetrahydropyrano[4,3-c]pyrazole-3-carboxamide] | < 1000 nM | < 1000 nM | 
CC(C)(C)[C@H](NC(=O)c1nn(-c2ccc(Cl)cc2F)c2c1CCOC2)C(=O)NCCO [Compound 118, (S)-1-(4-chloro-2-fluorophenyl)-N-(1-(2-hydroxyethylamino)-3,3-dimethyl-1-oxobutan-2-yl)-1,4,5,7-tetrahydropyrano[3,4-c]pyrazole-3-carboxamide] | < 1000 nM | < 1000 nM | 
CC(C)(C)[C@H](NC(=O)n1nc(-c2ccc(F)c(F)c2)c2c1CCOC2)C(=O)NCCO [Compound 36, (S)-N-(1-(2-hydroxyethylamino)-3,3-dimethyl-1-oxobutan-2-yl)-3-(3,4-difluorophenyl)-6,7-dihydropyrano[4,3-c]pyrazole-1(4H)-carboxamide] |  |  | sensitivity to non-noxious mechanical stimuli, significance vs. vehicle-controls (rat L5/L6 SNL model; 3 mg/kg oral): significant to p<0.05 vs. vehicle-controls; sensitivity to non-noxious mechanical stimuli, significance vs. vehicle-controls (rat L5/L6 SNL model; 10 mg/kg oral): significant to p<0.001 vs. vehicle-controls; sensitivity to non-noxious mechanical stimuli, significance vs. vehicle-controls (rat L5/L6 SNL model; 30 mg/kg oral): significant to p<0.001 vs. vehicle-controls
CNC(=O)[C@@H](NC(=O)c1nn(-c2ccc(F)c(F)c2)c2c1CN(C)CCC2)C(C)(C)C [Compound 120, (S)-1-(3,4-difluorophenyl)-N-(3,3-dimethyl-1-(methylamino)-1-oxobutan-2-yl)-5-methyl-1,4,5,6,7,8-hexahydropyrazolo[4,3-c]azepine-3-carboxamide] | < 1000 nM | < 1000 nM | 
CC(C)(C)[C@H](NC(=O)n1nc(-c2ccc(F)c(F)c2)c2c1CCOC2)C(=O)N1CCN(c2ncccn2)CC1 [Compound 107, (S)-3-(3,4-difluorophenyl)-N-(3,3-dimethyl-1-oxo-1-(4-(pyrimidin-2-yl)piperazin-1-yl)butan-2-yl)-6,7-dihydropyrano[4,3-c]pyrazole-1(4H)-carboxamide] | < 1000 nM |  | EC50 [2, 3]: < 1000 nM
CC(C)(C)[C@H](NC(=O)c1nn(-c2cc(Cl)ccc2F)c2c1COCC2)C(=O)NCCO [Compound 119, (S)-1-(5-chloro-2-fluorophenyl)-N-(1-(2-hydroxyethylamino)-3,3-dimethyl-1-oxobutan-2-yl)-1,4,6,7-tetrahydropyrano[4,3-c]pyrazole-3-carboxamide] | < 1000 nM | < 1000 nM | 
CC(C)(C)[C@H](NC(=O)n1nc(-c2ccc(F)c(F)c2)c2c1CCOC2)C(=O)N1CCC[C@H]1CO [Compound 109, 3-(3,4-difluorophenyl)-N-((S)-1-((S)-2-(hydroxymethyl)pyrrolidin-1-yl)-3,3-dimethyl-1-oxobutan-2-yl)-6,7-dihydropyrano[4,3-c]pyrazole-1(4H)-carboxamide] | < 1000 nM | < 1000 nM | 
Cc1cc(NC(=O)[C@@H](NC(=O)n2nc(-c3ccc(F)c(F)c3)c3c2CCOC3)C(C)(C)C)n[nH]1 [Compound 105, (S)-3-(3,4-difluorophenyl)-N-(3,3-dimethyl-1-(5-methyl-1H-pyrazol-3-ylamino)-1-oxobutan-2-yl)-6,7-dihydropyrano[4,3-c]pyrazole-1(4H)-carboxamide] | < 1000 nM | < 1000 nM | 
Cc1nnc(CNC(=O)[C@@H](NC(=O)n2nc(-c3ccc(F)c(F)c3)c3c2CCOC3)C(C)(C)C)o1 [Compound 113, (S)-3-(3,4-difluorophenyl)-N-(3,3-dimethyl-1-((5-methyl-1,3,4-oxadiazol-2-yl)methylamino)-1-oxobutan-2-yl)-6,7-dihydropyrano[4,3-c]pyrazole-1(4H)-carboxamide] | < 1000 nM | < 1000 nM | 
Cc1nnc(CNC(=O)[C@@H](NC(=O)c2nn(-c3cc(Cl)ccc3F)c3c2COCC3)C(C)(C)C)o1 [Compound 123] | < 1000 nM |  | hCBR2 activity ([2]; cAMP assay): no detectable hCBR2 activity
CC(C)(C)C(NC(=O)c1nn(-c2cc(Cl)ccc2F)c2c1COCC2)C(=O)N1CCC[C@H]1CO (stereo partly drawn) [Compound 122] | < 1000 nM | < 1000 nM | 
CC(C)(C)[C@H](NC(=O)n1nc(-c2ccc(F)c(F)c2)c2c1CCOC2)C(=O)N1CCNC(=O)C1 [Compound 111, (S)-3-(3,4-difluorophenyl)-N-(3,3-dimethyl-1-oxo-1-(3-oxopiperazin-1-yl)butan-2-yl)-6,7-dihydropyrano[4,3-c]pyrazole-1(4H)-carboxamide] | < 1000 nM | < 1000 nM | 
CC(C)(C)[C@H](NC(=O)c1nn(-c2cc(Cl)ccc2F)c2c1COCC2)C(=O)N1CCNC(=O)C1 [Compound 121, (S)-1-(5-chloro-2-fluorophenyl)-N-(3,3-dimethyl-1-oxo-1-(3-oxopiperazin-1-yl)butan-2-yl)-1,4,6,7-tetrahydropyrano[4,3-c]pyrazole-3-carboxamide] | < 1000 nM |  | hCBR2 activity ([2]; cAMP assay): no detectable hCBR2 activity
Cc1cnc(CNC(=O)[C@@H](NC(=O)n2nc(-c3ccc(F)c(F)c3)c3c2CCOC3)C(C)(C)C)cn1 [Compound 106, (S)-3-(3,4-difluorophenyl)-N-(3,3-dimethyl-1-((5-methylpyrazin-2-yl)methylamino)-1-oxobutan-2-yl)-6,7-dihydropyrano-[4,3-c]pyrazole-1(4H)-carboxamide] | < 1000 nM |  | EC50 [2, 3]: < 1000 nM
CC(C)(C)[C@H](NC(=O)n1nc(-c2ccc(F)c(F)c2)c2c1CCOC2)C(=O)N1CCN(c2nccs2)CC1 [Compound 108, (S)-3-(3,4-difluorophenyl)-N-(3,3-dimethyl-1-oxo-1-(4-(thiazol-2-yl)piperazin-1-yl)butan-2-yl)-6,7-dihydropyrano[4,3-c]pyrazole-1(4H)-carboxamide] | < 1000 nM | < 1000 nM | 
CN(C)S(=O)(=O)N1CCN(C(=O)[C@@H](NC(=O)n2nc(-c3ccc(F)c(F)c3)c3c2CCOC3)C(C)(C)C)CC1 [Compound 112, (S)-3-(3,4-difluorophenyl)-N-(1-(4-(N,N-dimethylsulfamoyl)piperazin-1-yl)-3,3-dimethyl-1-oxobutan-2-yl)-6,7-dihydropyrano-[4,3-c]pyrazole-1(4H)-carboxamide] | < 1000 nM |  | EC50 [2, 3]: > 1000 nM
CNC(=O)[C@@H](NC(=O)n1nc(-c2cc(C(F)(F)F)ccc2F)c2c1CCN(C)C2)C(C)(C)C [Compound 59, (S)-N-(3,3-dimethyl-1-(methylamino)-1-oxobutan-2-yl)-3-(2-fluoro-5-(trifluoromethyl)phenyl)-5-methyl-4,5,6,7-tetrahydro-1H-pyrazolo[4,3-c]pyridine-1-carboxamide] | < 1000 nM | < 1000 nM | 
CC(C)(C)[C@H](NC(=O)n1nc(-c2ccc(F)c(F)c2)c2c1CCOC2)C(=O)NCCC#N [Compound 104, (S)-N-(1-(2-cyanoethylamino)-3,3-dimethyl-1-oxobutan-2-yl)-3-(3,4-difluorophenyl)-6,7-dihydropyrano[4,3-c]pyrazole-1(4H)-carboxamide] | < 1000 nM | < 1000 nM | 
